A word on the EC50: it is the concentration needed to bring the measured effect to its halfway point.

Like-named read-outs stand apart in the source and are kept apart here.

Data on 3 compounds can be found in article PMC11082923 (Journal of Agricultural and Food Chemistry, 2024).

In assay [1] the target is T1, TAS2R16 (Homo sapiens, UniProt Q9NYV7).
T1 sequence (Q9NYV7 1-291): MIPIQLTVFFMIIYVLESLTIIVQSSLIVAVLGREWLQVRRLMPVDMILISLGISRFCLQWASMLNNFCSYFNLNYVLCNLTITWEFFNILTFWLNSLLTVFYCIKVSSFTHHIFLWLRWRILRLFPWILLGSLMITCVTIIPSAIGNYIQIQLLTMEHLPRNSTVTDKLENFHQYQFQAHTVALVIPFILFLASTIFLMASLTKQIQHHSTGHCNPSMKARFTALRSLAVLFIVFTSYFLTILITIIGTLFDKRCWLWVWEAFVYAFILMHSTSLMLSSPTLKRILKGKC
The experiment in a line: Fluo4-AM calcium imaging. The class given is cell-based.

Assay [2] addresses T1, TAS2R16. The experiment in a line: Fluo4-AM calcium imaging. It counts as cell-based. Conditions: agonist; C1 buffer with or without NaCl ([…] NMDG), pH […].

Regarding `OCc1ccccc1O[C@@H]1O[C@H](CO)[C@@H](O)[C@H](O)[C@H]1O` [D-salicin], in assay [1], the EC50 turned out to be 1280 ± 180 µM. As for `O=Cc1ccccc1O[C@@H]1O[C@H](CO)[C@@H](O)[C@H](O)[C@H]1O` [Helicin], in assay [2], the EC50 result was “signal saturation of TAS2R16 was achieved with phenyl-βD-glucopyranoside and helicin”. Regarding `OC[C@H]1O[C@@H](Oc2ccccc2)[C@H](O)[C@@H](O)[C@@H]1O` [phenyl-βD-glucopyranoside], the EC50 entry in assay [2] was “signal saturation of TAS2R16 was achieved with phenyl-βD-glucopyranoside and helicin”.
